Source: US20160320368A1, “METHOD AND APPARATUS FOR PREDICTING EFFECTIVE DOSE OR SENSITIVITY OF 5-HYDROXY-1H-IMIDAZOLE-4-CARBOXAMIDE, METHOD FOR DETERMINING AMOUNT OF XANTHOSINE MONOPHOSPHATE, AND TREATMENT AGENT AND METHOD FOR TREATING MYELODYSPLASTIC SYNDROME” (FUJIFILM Corporation, priority 2014, published 2016)

Tests used:
[1] = tested on: XMP in bone marrow cells; assay: XMP in bone marrow cells of mice after oral administration; type: in vivo, female mice (BALB/cAJcl); conditions: 100 mg/kg oral, non-treated = 100%
Protocol: (§1) A ¾ hydrate of Compound A was used as a test compound.
0.5% MC or 0.5% MC of the test compound (100 mg/kg in terms of Compound A) was orally administered to female mice (BALB/cAJcl).
Right and left femurs of animals were collected under anesthesia by isoflurane inhalation at 1, 4, 8 or 24 hours post-dose, followed by cutting bone ends and centrifuging at 4° C. and 3000 rpm for 1 min to recover bone marrow cells. The recovered bone marrow cells were suspended in 1 mL of PBS, and the number of cells was counted. After centrifugation at 4° C. and 1000×g for 5 min, the supernatant was removed, and 1000 μL of methanol was added to each tube, followed by stirring. Thereafter, 500 μL of ultrapure water was added thereto, followed by further stirring. 600 μL of the reaction solution was divided into each of two tubes, and 400 μL of chloroform was added to each tube. The reaction solution was stirred and then centrifuged at 4° C. and 10000×g for 15 min. 400 μL of the aqueous phase was recovered and added to an ultrafiltration tube, followed by centrifugation at 12° C. and 9200×g for 2 hours. The filtrates were combined and then dried under reduced pressure at 40° C. for 2 hours by using a centrifugal evaporator. After drying, the resulting product was stored in a freezer at −80° C.
The samples obtained in (2-1) and (2-2) were returned to room temperature, and 40 μL of ultrapure water was added to the hemolysis sample and 150 μL of ultrapure water was added to the bone marrow sample. The mixture was stirred and then centrifuged at 4° C. and 21500×g for 5 min. For the hemolysis sample, 35 μL of the supernatant was transferred to a vial. For the bone marrow sample, 140 μL of the supernatant was transferred to a vial. After storage at 4° C., XMP in samples was determined in the LC-MS/MS determination instrument, LC conditions and MS/MS conditions described in Example 3 (3).
Amounts of XMP (%) were calculated assuming that amounts of XMP in a non-Compound A treated group are defined as 100%.

[2] = tested on: XMP in human myeloid leukemia cells SKM-1; assay: XMP in human myeloid leukemia cells SKM-1 (LC-MS/MS); type: cell-based; conditions: 24 hours; for Amount of XMP (%): non-treated = 100%; for Decline rate of XMP: 100−amount of XMP (%)
Protocol: as §1
SKM-1 was used as a human myeloid leukemia cell.
2×10^7 human myeloid leukemia cells were suspended in a culture flask containing 18 mL of an RPMI1640 medium (manufactured by Life Technologies, Inc.). 2 mL of a PBS solution of the test compound (0 μg/mL, 10 μg/mL, 30 μg/mL, 100 μg/mL, 300 μg/mL, or 1000 μg/mL in terms of Compound A) was added to the flask which was then incubated at 37° C. under 5% CO2 for 24 hours. After centrifugation at 20° C. and 300×g for 3 min, the supernatant was removed and suspended in 10 mL of a PBS solution. 10 μL of the suspension was aliquoted and cells were counted using TC10 (manufactured by BioRad). After centrifugation and 300×g for 5 min, the supernatant was removed. After stirring with addition of 1000 μL of methanol, 500 μL of ultrapure water was added thereto, followed by further stirring. 600 μL of the reaction solution was divided into each of two tubes, and 400 μL of chloroform was added to each tube. The reaction solution was stirred and then centrifuged at 4° C. and 10000×g for 15 min. 400 μL of the aqueous phase was recovered and added to an ultrafiltration tube, followed by centrifugation at 12° C. and 9200×g for about 2 hours. The filtrates were pooled in one tube and then dried under reduced pressure at 40° C. for 2 hours by using a centrifugal evaporator. After drying, the resulting product was stored in a freezer at −80° C.
The samples obtained in (1) were returned to room temperature, to each of which 50 μL of 5 mmol/L ammonium formate containing 4 ng/μL of 2′-fluoro-2′-deoxycytidine monophosphate was then added, followed by stirring. 12.5 μL of the supernatant was transferred to a vial, and XMP in the samples was determined in the following determining conditions.
Amounts of XMP (%) were calculated according to the following equation, assuming that the XMP value of a non-Compound A treated group is defined as 100%.
Amount of XMP (%)=((peak area of XMP)/((peak area of 2′-fluoro-2′-deoxycytidine monophosphate)×(number of cells)))/((peak area of XMP of untreated group)/((peak area of 2′-fluoro-2′-deoxycytidine monophosphate of untreated group) (number of cells of untreated group)))×100
The decline rate of XMP (%) was calculated according to the following equation.
Decline rate of XMP (%)=100−amount of XMP (%)

SMILES: NC(=O)c1nc[nH]c1O [Compound A, 5-Hydroxy-1H-imidazole-4-carboxamide]
- Amount of XMP (%) Bone marrow cell ([1]; 1 hr post-dose): 8.7%
- Amount of XMP (%) Bone marrow cell ([1]; 4 hr post-dose): 16.5%
- Amount of XMP (%) Bone marrow cell ([1]; 8 hr post-dose): 25.9%
- Amount of XMP (%) Bone marrow cell ([1]; 24 hr post-dose): 82.7%
- Amount of XMP (%) ([2]; SKM-1, Compound A 1 μg/mL): 57%
- Decline rate of XMP ([2]; SKM-1, Compound A 1 μg/mL): 43%
- Amount of XMP (%) ([2]; SKM-1, Compound A 10 μg/mL): 45%
- Decline rate of XMP ([2]; SKM-1, Compound A 10 μg/mL): 55%
- Amount of XMP (%) ([2]; SKM-1, Compound A 100 μg/mL): 17%
- Decline rate of XMP ([2]; SKM-1, Compound A 100 μg/mL): 83%
